{
  "source": "patent US20110230430A1",
  "about": "“SAPONIN EXTRACT FROM SAPONARIA SPP. AND USES THEREOF” (NATIONAL RESEARCH COUNCIL OF CANADA, priority 2008, published 2011)",
  "assay_type_in_all_cases": "cell-based, human",
  "key": {"PC-3 cells": {"system": "PC-3 cells", "experiment": "APO LOGIX Carboxyfluorescein Caspase 9 Detection Kit in PC-3 cells", "from_the_text": "(§1) In a still further apoptotic assay, apoptosis can be measured by the APO LOGIX™ Carboxyfluorescein Caspase 9 Detection Kit. The APO LOGIX™ Carboxyfluorescein Caspase 9 Detection Kit uses a cell permeable carboxyfluorescein labeled caspase inhibitor, which binds covalently to active caspases 9. Caspase 9 is involved in initiating apoptosis through the mitochondrial pathway (Budihardjo I., et al. 1999). Cells that contain bound inhibitor are detected by an increase in fluorescence when samples are analyzed by flow cytometry.\nPC-3 cells (ATCC #CRL-1435) were derived from a prostate adenocarcinoma (Kaighn et al., 1979). They were maintained in RPMI 1640 medium (Gibco) supplemented with 10% fetal bovine serum (Cansera), 100 U/mL penicillin, and 100 μg/mL streptomycin and 0.25 μg/mL amphotericin B. Cultures were maintained in medium at 37° C. with 5% CO2 and 100% relative humidity.\nPC-3 cells were seeded in tissue culture flasks with regular growth medium and maintained under normal conditions. After cells had adhered, the tissue culture medium was replaced with medium containing PC1448 dissolved in DMSO with the final concentration of DMSO not exceeding 0.05%. For each assay, a flask of untreated cells was grown in media containing the same amount of DMSO as in the PC1448 treated samples. Following incubation under normal growth conditions for the specified time, cells were washed once with cold phosphate-buffered saline (PBS) (137 mM NaCl, 2.7 mM KCl, 4.3 mM Na2HPO4.7H2O, 1.4 mM KH2PO4) and harvested as previously described. Assays were carried out according to instructions given in kits. All Flow Cytometry was performed using a Coulter Epics XL (Beckman)."}, "[1]": {"system": "PC-3 (prostate cancer) cells", "experiment": "Hoechst 33342 staining of PC-3 cells", "conditions": "7 μM PC1448, 24 hours", "from_the_text": "Apoptosis can also be measured by Hoechst 33342 Staining. Cells undergoing apoptosis show several characteristic morphological changes. These changes include cell shrinkage and rounding, and the formation of cytoplasmic blebs on the cell surface. Nuclear material condenses along the edge of the nucleus followed by complete condensation and nuclear fragmentation (Hacker, G., 2000). Apoptotic cells eventually break up into membrane bound vesicles, which are known as apoptotic bodies. Hoechst 33342 is a fluorescent DNA-binding dye that allows visualization of chromatin distribution within a cell. Apoptotic nuclei have highly condensed chromatin, often in crescent shapes around the periphery of the nucleus.\nA further indication of apoptotic activity, in addition to the assays described above, can be derived from observations of changes in cell architecture evident after induction of apoptosis. Hoechst 33342 is a fluorescent DNA-binding dye that allows visualization of chromatin distribution within a cell.\nCells undergoing apoptosis show several characteristic morphological changes. These changes include cell shrinkage and rounding, and the formation of cytoplasmic blebs on the cell surface. Nuclear material condenses along the edge of the nucleus followed by complete condensation and nuclear fragmentation (Hacker, G., 2000). […]"}, "WiDr colon cancer cells": {"system": "WiDr colon cancer cells", "experiment": "Dual Sensor: MitoCasp Assay in WiDr colon cancer cells", "conditions": "2.5 μM, 5.0 μM, 10 μM, and 15 μM, 24 hours", "from_the_text": "Techniques to assay enzymatic and signaling processes involved in apoptosis have been developed as standard protocols. One example of an early step in apoptosis, is the release of cytochrome C from mitochondria and the activation of caspase-3. Induction of the caspases (a series of cytosolic proteases) is one of the most consistently observed features of apoptosis. Caspases are a family of proteolytic enzymes that transmit the apoptotic signal using a proteolytic cascade. […] Caspases 3 and 7 are effector caspases, central to the caspase cascade pathways. In particular, caspase-3 plays a central role in the process. When caspases are activated, they cleave target proteins; one of the most important of these is poly-(ADP-ribose) polymerase (PARP), which is a protein located in the nucleus. […] Collapse of the mitochondrial membrane potential during apoptosis prevents the dye from accumulating in the mitochondria resulting in a decrease in fluorescent intensity that can be detected with flow cytometry. […] In this assay, caspase 3/7 activity is detected using a cell permeable carboxyfluorescein labeled caspase inhibitor, which binds covalently to active caspases 3 and 7. Cells that contain bound inhibitor are detected by an increase in fluorescence when samples are analyzed by flow cytometry. […]"}, "MDA-MB-231 cells": {"system": "MDA-MB-231 cells", "experiment": "APO LOGIX Carboxyfluorescein Caspase 9 Detection Kit in MDA-MB-231 cells", "from_the_text": "as §1\nThe MDA-MB-231 cell line (ATCC #HTB-26) was derived from the pleural effusion of a patient with a breast adenocarcinoma (Cailleau et al., 1974). The cells were maintained in RPMI 1640 (Gibco) supplemented with 10% fetal bovine serum (Camera), 100 U/mL penicillin, 100 μg/mL streptomycin and 0.25 μg/mL amphotericin B. Cultures were maintained in medium at 37° C. with 5% CO2 and 100% relative humidity.\nMDA-MB-231 cells were treated with PC1448 and assayed for apoptosis as previously described for PC-3 cells."}},
  "data": [
    {"substance": "Segetoside H [PC1448]", "values": [
      {"measurement": "Caspase 9 positive cells", "setting": "PC-3 cells; 7 μM PC1448, 20 hr", "value": 47.7, "unit": "%"},
      {"measurement": "Caspase 9 positive cells", "setting": "PC-3 cells; 10 μM PC1448, 20 hr", "value": 73.9, "unit": "%"},
      {"measurement": "Caspase 9 positive cells", "setting": "PC-3 cells; 14 μM PC1448, 10 hr", "value": 37.3, "unit": "%"},
      {"measurement": "Caspase 9 positive cells", "setting": "PC-3 cells; 14 μM PC1448, 15 hr", "value": 44.2, "unit": "%"},
      {"measurement": "Caspase 9 positive cells", "setting": "PC-3 cells; 14 μM PC1448, 20 hr", "value": 48.0, "unit": "%"},
      {"measurement": "Increase in cells with caspase 9 activity vs untreated", "setting": "PC-3 cells; 14 μM PC1448, 20 hr (concentration range)", "value": "six fold"},
      {"measurement": "Caspase 9 positive cells", "setting": "PC-3 cells; 14 μM PC1448, 20 hr (concentration series)", "value": 75.3, "unit": "%"},
      {"measurement": "Increase in cells showing caspase 9 activity vs untreated", "setting": "PC-3 cells; 14 μM PC1448, 20 hr (time course)", "value": "six fold"},
      {"measurement": "Caspase 9 positive cells", "setting": "PC-3 cells; 14 μM PC1448, 40 hr", "value": 29.4, "unit": "%"},
      {"measurement": "Caspase 9 positive cells", "setting": "PC-3 cells; 17 μM PC1448, 20 hr", "value": 65.6, "unit": "%"},
      {"measurement": "Nuclear morphology after Hoechst 33342 staining (in words, FIG. 4)", "setting": "[1]", "value": "nuclear changes characteristic of apoptotic cells"},
      {"measurement": "Induction of apoptosis (in words, FIG. 8)", "setting": "WiDr colon cancer cells", "value": "induces apoptosis"},
      {"measurement": "Caspase 9 positive cells", "setting": "MDA-MB-231 cells; 14 μM PC1448, 10 hr", "value": 23.2, "unit": "%"},
      {"measurement": "Caspase 9 positive cells", "setting": "MDA-MB-231 cells; 14 μM PC1448, 15 hr", "value": 29.8, "unit": "%"},
      {"measurement": "Caspase 9 positive cells", "setting": "MDA-MB-231 cells; 14 μM PC1448, 20 hr", "value": 30.5, "unit": "%"},
      {"measurement": "Increase in cells with caspase 9 activity vs untreated (maximum effect)", "setting": "MDA-MB-231 cells; 14 μM PC1448, 40 hours", "value": 2.5, "unit": "fold"},
      {"measurement": "Caspase 9 positive cells", "setting": "MDA-MB-231 cells; 14 μM PC1448, 40 hr", "value": 39.4, "unit": "%"}
    ]}
  ]
}
